The values that follow come from patent US20250152564A1, “PROPYLENE KETONE-CONTAINING BIOINHIBITOR, PREPARATION METHOD THEREFOR, AND USE THEREOF” (SHANGHAI HANSOH BIOMEDICAL CO., LTD., priority 2022, published 2025).

One experiment has as its target FGFR1 (Homo sapiens (Human), UniProt P11362). Briefly: TR-FRET kinase inhibition assay, FGFR1. The note with it: ATP Km concentration (30 μM). The experiment is classed as biochemical. On the procedure: To measure the IC50 values of the compounds against FGFR1, FGFR2, FGFR3, FGFR4, and FGFR2 V564F at ATP Km concentrations by TR-FRET method.
TR-FRET (time-resolved fluorescence resonance energy transfer) method was used to detect the inhibitory activity of the compounds on FGFR1, FGFR2, FGFR3, FGFR4, and FGFR2 V564F kinase region fragments. The highest detection concentration of the compounds in 5 kinase experiments was 1000 nM, which was diluted in 3 folds, with a total of 11 concentrations (1000 nM to 0.017 nM). A kinase buffer (50 mM HEPES pH 7.5, 1 mM EGTA, 10 mM MgCl2, 2 mM DTT, and 0.01% Tween-20) was used to prepare 4× enzyme solution, 4× compound solutions diluted in gradient, and a 2×ATP/Peptide substrate solution. To a 384-well plate, 2.5 μL of enzyme solution and 2.5 μL of diluted […] compound solution were added, and 5 μL of 2×ATP/Peptide substrate solution was then added. After reacting at room temperature for 60 minutes for FGFR1, FGFR2, FGFR3, and FGFR2 V564F kinases, and 120 minutes for FGFR4 kinase, 10 μL of a 2× termination and detection mixed liquid prepared with 1×LANCE detection buffer with an EDTA concentration of 20 mM and a Europium-anti-phosphotyrosine (PT66) concentration of 2 nM was added to each well of the plate. After reacting at room temperature for 60 minutes for FGFR1, FGFR2, FGFR3, and FGFR4, and 30 minutes for FGFR2 V564F, the fluorescence signal value in each well of the plate was measured by a microplate reader.
1) Inhibition rate (%): Calculation was performed on the raw data (665 nm/620 nm reading ratio) according to the following formula to obtain the inhibition rate. Inhibition rate %=[(mean value in positive control well−value in sample well)/(mean value in positive control well−mean value in negative control well)]×100, wherein the positive control well was a reaction well without a compound […], and the negative control well was a reaction wells without an enzyme.
(§1) 2) Curve fitting: Log(inhibitor) vs. response—Variable slope (four parameters) in GraphPad Prism 6 was used for fitting equation analysis of the compound concentration and the corresponding inhibition rate, and the curve was fitted to obtain the IC50 values of the compounds.

The next experiment concerns the target FGFR2 (Homo sapiens (Human), UniProt P21802). As to the kind of experiment: TR-FRET kinase inhibition assay, FGFR2. The experiment is classed as biochemical. As to conditions: ATP Km concentration (30 μM). In short, it runs like this: (§2)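 Kinase-domain fragments in 50 mM HEPES pH 7.5 with 10 mM MgCl2, ATP at Km plus peptide substrate; 60 min reaction at room temperature, then EDTA/Eu-anti-phosphotyrosine (PT66) detection for 60 min (30 min for V564F). 11-point 3-fold dilutions from 1000 nM; IC50 from four-parameter fit of 665/620 nm ratio inhibition.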
For orientation: In TR-FRET formats the signal depends on donor and acceptor labels being close together.

In the next experiment the target is FGFR2 V564F (Homo sapiens (Human), UniProt P21802, V564F). Briefly: TR-FRET kinase inhibition assay, FGFR2 V564F. The experiment is classed as biochemical. As to conditions: ATP Km concentration (20 μM). In a few lines:
as §2

For the next experiment, the system named is NCI-H716 cells. Briefly: CellTiter-Glo cell proliferation inhibition, NCI-H716. The note with it: Homo sapiens, 72 h, read-out: NCI-H716 cell proliferation inhibition rate IC50. The experiment is classed as cell-based. On the procedure:
To evaluate inhibitory effects of the compounds on the proliferation of NCI-H716, SNU-16 and BaF3-FGFR2-BICC1 V564F cells by cell proliferation inhibition experiments.
CellTiter-Glo method was used to detect inhibitory effects of the compounds on the proliferation of NCI-H716, SNU-16 and BaF3 FGFR2-BICC1 V564F cells. The highest detection concentration of the compounds was 1000 nM, which was diluted in 3 folds, with a total of 9 concentrations (1000 nM to 0.15 nM). After the cells were plated at an appropriate density, compounds were added the next day and incubated for 72 h before detection using the […] detection kit.
1) Inhibition rate (%): Inhibition rate %=[(mean value in positive control well−value in sample well)/(mean value in positive control well−mean value in negative control well)]×100, wherein the positive control well was a reaction well without a compound […], and the negative control well was a reaction wells without an enzyme.
as §1

Experiment [1] has as its system BaF3 FGFR2-BICC1 V564F cells. As to the kind of experiment: CellTiter-Glo cell proliferation inhibition, BaF3 FGFR2-BICC1 V564F. The experiment is classed as cell-based. As to conditions: Mus musculus, 72 h, read-out: BaF3 FGFR2-BICC1 V564F inhibitory activity IC50. In short, it runs like this: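 Cells plated, compound added next day as 9-point 3-fold series from 1000 nM to 0.15 nM, incubated 72 h. Viability by CellTiter-Glo luminescence; IC50 from four-parameter variable-slope fit of percent inhibition.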
For orientation: In ATP-based viability assays light output follows the ATP content of the culture.

Chain of FGFR2 (P21802 481-770): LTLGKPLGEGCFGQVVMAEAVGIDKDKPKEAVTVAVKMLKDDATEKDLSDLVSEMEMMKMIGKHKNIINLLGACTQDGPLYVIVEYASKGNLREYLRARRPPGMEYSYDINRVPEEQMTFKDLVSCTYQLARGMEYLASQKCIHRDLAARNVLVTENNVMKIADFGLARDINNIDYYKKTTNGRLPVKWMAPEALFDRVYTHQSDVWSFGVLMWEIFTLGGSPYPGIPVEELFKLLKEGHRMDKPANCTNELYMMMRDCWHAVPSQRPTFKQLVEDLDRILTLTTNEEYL
Chain of FGFR2 V564F (P21802 481-770 V564F): as the sequence (P21802 481-770) above, with V84F counted along it
Chain of FGFR1 (P11362 478-767): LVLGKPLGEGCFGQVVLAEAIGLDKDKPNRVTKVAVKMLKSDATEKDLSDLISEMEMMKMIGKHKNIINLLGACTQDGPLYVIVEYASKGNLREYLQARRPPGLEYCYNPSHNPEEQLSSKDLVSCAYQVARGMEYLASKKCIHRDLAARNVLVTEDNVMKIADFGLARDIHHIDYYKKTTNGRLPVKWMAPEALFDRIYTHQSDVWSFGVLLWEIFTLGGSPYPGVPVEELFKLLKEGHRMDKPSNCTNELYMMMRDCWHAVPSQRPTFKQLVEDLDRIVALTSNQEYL

With `C=CC(=O)N1CC[C@H](n2nc(C#Cc3ccc4csnc4c3)c3c(N)ncc(C(=O)C4CC4)c32)C1` [Example 91, (S)-1-(3-(4-amino-3-(benzo[c]isothiazole-6-ethynylene)-7-(cyclopropanecarbonyl)-1H-pyrazolo[4,3-c]pyridin-1-yl)pyrrolidine-1-methyl)prop-2-en-1-one], the IC50 stood at 3.9 nM against FGFR1; 1 nM against FGFR2; 1.1 nM against FGFR2 V564F; 0.97 nM with NCI-H716 cells; 0.8 nM in experiment [1].
With `C=CC(=O)N1CC[C@H](n2nc(C#Cc3cc4ncn(CC)c4cc3F)c3c(N)ncc(C(=O)CC)c32)C1` [Example 60, (S)-1-(3-(4-amino-3-((1-ethyl-6-fluoro-1H-benzo[d]imidazol-5-yl)ethynyl)-7-propionyl-1H-pyrazolo[4,3-c]pyridin-1-yl)pyrrolidin-1-yl)prop-2-en-1-one], the IC50 at FGFR1 was found to be 4.7 nM; at FGFR2, 0.9 nM; at FGFR2 V564F, 0.4 nM; in the experiment with NCI-H716 cells, 2.19 nM; in experiment [1], 1.7 nM.
For the compound `C=CC(=O)N1CC[C@H](n2nc(C#Cc3cc4ncn(C5CC5)c4cc3F)c3c(N)ncc(C(=O)C4CC4)c32)C1` [Example 49, (S)-1-(3-(4-amino-7-(cyclopropanecarbonyl)-3-((1-cyclopropyl-6-fluoro-1H-benzo[d]imidazol-5-yl)ethynyl)-1H-pyrazolo[4,3-c]pyridin-1-yl)pyrrolidin-1-yl)prop-2-en-1-one], the IC50 against FGFR1 was determined as 3.9 nM; on FGFR2 it was 1.3 nM; against FGFR2 V564F, 1 nM; in the experiment with NCI-H716 cells, 1.92 nM; in experiment [1] it was 0.4 nM.
Turning to `C=CC(=O)N1CC[C@H](n2nc(C#Cc3ccn4ccnc4c3)c3c(N)ncc(C(=O)C4CC4)c32)C1` [Example 79, (S)-1-(3-(4-amino-7-(cyclopropanecarbonyl)-3-(imidazo[1,2-a]pyridine-7-ethynylene)-1H-pyrazolo[4,3-c]pyridin-1-yl)pyrrolidine-1-methyl)prop-2-en-1-one], the IC50 on FGFR1 worked out at 4.5 nM; against FGFR2 it was 0.7 nM; at FGFR2 V564F, 0.4 nM; in the experiment on NCI-H716 cells, 1.2 nM; in experiment [1], 1.1 nM.
The matching figures for `C=CC(=O)N1CC[C@H](n2nc(C#Cc3cc4ncn(C5CC5)c4cc3F)c3c(N)ncc(C(C)=O)c32)C1` [Example 7, (S)-1-(3-(7-acetyl-4-amino-3-((1-cyclopropyl-6-fluoro-1H-benzo[d]imidazol-5-yl)ethynyl)-1H-pyrazolo[4,3-c]pyridin-1-yl)pyrrolidin-1-yl)prop-2-en-1-one]: 1.3 nM, 1 nM, 0.3 nM, 1.26 nM and 0.9 nM.
For `C=CC(=O)N1CC[C@H](n2nc(C#Cc3ccc4c(c3)ncn4C)c3c(N)ncc(C(=O)C4CC4)c32)C1` [Example 65, (S)-1-(3-(4-amino-7-(cyclopropanecarbonyl)-3-((1-methyl-1H-benzo[d]imidazol-5-yl)ethynyl)-1H-pyrazolo[4,3-c]pyridin-1-yl)pyrrolidin-1-yl)prop-2-en-1-one], the IC50 at FGFR1 is 2.8 nM; against FGFR2, 0.7 nM; against FGFR2 V564F, 0.5 nM; in the experiment with NCI-H716 cells, 1.5 nM; in experiment [1] it was 1.4 nM.
For `C=CC(=O)N1CC[C@H](n2nc(C#Cc3cc4ncn(CC)c4cc3F)c3c(N)ncc(C(C)=O)c32)C1` [Example 24, (S)-1-(3-(7-acetyl-4-amino-3-((1-ethyl-6-fluoro-1H-benzo[d]imidazol-5-yl)ethynyl)-1H-pyrazolo[4,3-c]pyridin-1-yl)pyrrolidin-1-yl)prop-2-en-1-one], the IC50 was 3.6 nM at FGFR1; 0.7 nM against FGFR2; 0.4 nM on FGFR2 V564F; 2.09 nM in the experiment with NCI-H716 cells; 0.8 nM in experiment [1].
As for `C=CC(=O)N1CC[C@H](n2nc(C#Cc3cc4ncn(C)c4cc3Cl)c3c(N)ncc(C(=O)C4CC4)c32)C1` [Example 68, (S)-1-(3-(4-amino-3-((6-chloro-1-methyl-1H-benzo[d]imidazol-5-yl)ethynyl)-7-(cyclopropanecarbonyl)-1H-pyrazolo[4,3-c]pyridin-1-yl)pyrrolidin-1-yl)prop-2-en-1-one], the IC50 against FGFR1 came out at 2.4 nM; against FGFR2 it was 1.4 nM; against FGFR2 V564F, 0.3 nM; in the experiment with NCI-H716 cells, 1.42 nM; in experiment [1], 0.5 nM.
For `C=CC(=O)N1CC[C@H](n2nc(C#Cc3cc4ncn(CC)c4cc3F)c3c(N)ncc(C(=O)C4CC4)c32)C1` [Example 61, (S)-1-(3-(4-amino-7-(cyclopropanecarbonyl)-3-((1-ethyl-6-fluoro-1H-benzo[d]imidazol-5-yl)ethynyl)-1H-pyrazolo[4,3-c]pyridin-1-yl)pyrrolidin-1-yl)prop-2-en-1-one], the IC50 on FGFR1 was 2.2 nM; against FGFR2 it was 0.8 nM; on FGFR2 V564F, 0.4 nM; in the experiment on NCI-H716 cells, 1.77 nM; in experiment [1], 1 nM.
Take `C=CC(=O)N1CC[C@H](n2nc(C#Cc3ccc4cn(C)nc4c3)c3c(N)ncc(C(=O)CC)c32)C1` [Example 83, (S)-1-(3-(4-amino-3-((2-methyl-2H-indazol-6-yl)alkynyl)-7-propionyl-1H-pyrazolo[4,3-c]pyridin-1-yl)pyrrolidine-1-methyl)prop-2-en-1-one]: the IC50 was 1.7 nM at FGFR1; 0.3 nM on FGFR2; 0.3 nM against FGFR2 V564F; 0.82 nM in the experiment on NCI-H716 cells; 0.7 nM in experiment [1].
